Source: ChEMBL document CHEMBL1121942, “Sparsophenicol: a new synthetic hybrid antibiotic inhibiting ribosomal peptide synthesis” (J Med Chem, 1982)

Legend:
Escherichia coli [1] = test: Tested for the percent inhibition against N-acetyl-L-phenylalanyl tRNA-70S Escherichia coli ribosome poly-U complex at 3.8*10e-4M concentration; format: functional
Escherichia coli [2] = test: Tested for the inhibitory activity against N-acetyl-L-phenylalanyl tRNA-70S Escherichia coli ribosome poly-U complex; format: functional, organism-based

Compound	Inhibition (Escherichia coli [1]) [%]	Ki (Escherichia coli [2]) [µM]
Cc1nc(O)nc(O)c1/C=C/C(=O)ON1C(=O)CCCC1=O	20	–
Cc1nc(O)nc(O)c1/C=C/C(=O)N(C)C	–	350
Cc1nc(O)nc(O)c1/C=C/C(=O)NC(CO)C(O)c1ccc([N+](=O)[O-])cc1 (centres undefined)	–	3
COc1ccc(C[C@H](N)C(=O)N[C@H]2[C@@H](O)[C@H](n3cnc4c(N(C)C)ncnc43)O[C@@H]2CO)cc1 [PUROMYCIN]	–	220
